The results in this text go back to ChEMBL document CHEMBL1141419, “N-(5-Fluoro-2-phenoxyphenyl)-N-(2-[(131)I]iodo-5-me thoxybenzyl)acetamide: a potent iodinated radioligand for the peripheral-type benzodiazepine receptor in brain” (J Med Chem, 2007).

Data set [1] is described as follows: Distribution coefficient, log D at pH 7.4 by shake flask method. Type of data set: physicochemical. The following applies: octanol/water.
Data set [2] has as its target T1, Translocator protein (Rattus norvegicus, UniProt P16257). Description: Displacement of [11C]DAA1106 from PBR in Sprague-Dawley rat brain. Type of data set: tissue-based. (Displacement assays read how much labelled ligand stays bound in the presence of the test substance.)
Data set [3] addresses T1, Translocator protein. Description: Displacement of [11C]PK-11195 from PBR in Sprague-Dawley rat brain. In kind it is tissue-based.
The species named for another data set is Rattus norvegicus. The data set is described as follows: Displacement of [11C]flumazenil from CBR in Sprague-Dawley rat brain.
The nature of data set [4]: Ratio of drug level in choroids plexus against striatum in Sprague-Dawley rat after 30 mins. Type of data set: ADME, tissue-based. Particulars: in vivo, 0.5 h.
A short description of data set [5]: Stability in iv dosed ddy mouse brain after 30 min. Type of data set: ADME, organism-based. Particulars: read-out: Stability.
Data set [6] in a line: Ratio of drug level in olfactory bulb against striatum in Sprague-Dawley rat after 30 mins. Type of data set: ADME, tissue-based. Particulars: in vivo, 0.5 h.

Molecules are shown by their SMILES. pIC50: −log10 of the molar value. Where only a bound is given, the exact number is not on record here.

T1 sequence (P16257 whole entry, looked up): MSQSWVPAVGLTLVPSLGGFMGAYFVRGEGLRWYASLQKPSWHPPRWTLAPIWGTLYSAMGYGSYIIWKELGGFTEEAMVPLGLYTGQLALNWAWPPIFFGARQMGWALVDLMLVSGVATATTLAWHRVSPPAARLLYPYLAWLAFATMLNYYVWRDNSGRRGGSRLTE

The term logD denotes lipophilicity at a set pH, counting ionised and neutral species. Low readings indicate lower lipophilicity, high ones higher lipophilicity. One may read the pIC50 as the negative decadic logarithm of the IC50, by convention in mol/L. The molecule `COc1ccc(I)c(CN(C(C)=O)c2cc(F)ccc2Oc2ccccc2)c1` returned a logD in data set [1] of 4.42. Further, the pIC50 on Translocator protein [2] was 8.11; on Translocator protein [3] it was 8.36; in the data set filed under Rattus norvegicus, less than 5.00.
Take `COc1ccc([131I])c(CN(C(C)=O)c2cc(F)ccc2Oc2ccccc2)c1`: the Ratio in data set [4] is 3.2; in data set [6] it was 1.5. Further, in data set [5], the remaining at 0.5 h came to 90%.
Molecule `COc1ccc(OC)c(CN(C(C)=O)c2cc(I)ccc2Oc2ccccc2)c1` yielded a logD in data set [1] of 4.03. In addition, the pIC50 was 7.16 on Translocator protein [2], 7.22 on Translocator protein [3] and less than 5.00 in the data set filed under Rattus norvegicus.
As to `COc1ccc(OC)c(CN(C(C)=O)c2cc(F)ccc2Oc2ccccc2)c1`, the results for the pIC50 on Translocator protein [3] and in the data set filed under Rattus norvegicus were 8.89 and less than 5.00, respectively.
As for `CCC(C)N(C)C(=O)c1cc2ccccc2c(-c2ccccc2Cl)n1` (centres undefined), the pIC50 in the data set filed under Rattus norvegicus is less than 5.00.
